These results are taken from patent US20250255848A1, “SUBSTITUTED 6,7-DIHYDRO-5H-BENZO[7]ANNULENE DERIVATIVES, PROCESSES FOR THEIR PREPARATION AND THERAPEUTIC USES THEREOF” (SANOFI, priority 2022, published 2025).

Molecules are shown by their SMILES.

The target in this experiment is ERα (Homo sapiens (Human), UniProt P03372). The experiment can be described thus: Estrogen receptor degradation activity: breast cancer cell ERα in cell western assay. It is filed as cell-based. The conditions noted are these: MCF7 cells; for % Degradation At 0.3 μM: 4 hours, normalised to fulvestrant 0.1 μM and DMSO. The method in brief:
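MCF7 cells in phenol-red-free medium with 5% charcoal-stripped FBS, treated 4 h with 9-point 1:5 dilutions (0.3-0.0000018 μM final). ERα measured by in-cell western (anti-ER antibody, Alexa 488), normalized to Syto-64 DNA stain; % decrease scaled DMSO to 0.1 μM fulvestrant, IC50 in nM.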

Setting [1] is: 4 hours post compound addition, concentration which degrades 50% of the estrogen receptor.

ERα, sequence (P03372 whole entry): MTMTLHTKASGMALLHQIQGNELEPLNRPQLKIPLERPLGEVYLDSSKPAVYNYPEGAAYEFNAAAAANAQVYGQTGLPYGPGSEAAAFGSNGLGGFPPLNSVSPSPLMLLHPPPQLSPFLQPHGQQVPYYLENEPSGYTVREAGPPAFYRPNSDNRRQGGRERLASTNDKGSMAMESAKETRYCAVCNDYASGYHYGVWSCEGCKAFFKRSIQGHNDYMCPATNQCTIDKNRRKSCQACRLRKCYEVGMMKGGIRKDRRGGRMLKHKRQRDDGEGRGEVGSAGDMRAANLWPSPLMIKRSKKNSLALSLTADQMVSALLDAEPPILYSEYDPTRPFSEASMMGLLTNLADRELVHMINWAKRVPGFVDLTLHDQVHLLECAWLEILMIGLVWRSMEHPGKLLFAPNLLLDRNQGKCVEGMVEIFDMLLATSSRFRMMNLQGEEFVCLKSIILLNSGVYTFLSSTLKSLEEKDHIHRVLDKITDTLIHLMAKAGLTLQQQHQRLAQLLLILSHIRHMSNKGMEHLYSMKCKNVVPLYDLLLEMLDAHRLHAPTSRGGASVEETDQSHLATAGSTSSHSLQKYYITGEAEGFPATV

Usually IC50 stands for the concentration at which inhibition is half-maximal. Read a low IC50 as greater potency. For the molecule `COc1cc(C(F)(F)F)ccc1C1=C(c2ccc(C=C3CN(CCCF)C3)cc2)c2ccc(C(=O)O)cc2CCC1` [Compound 59, 9-(4-((1-(3-fluoropropyl)azetidin-3-ylidene)methyl)phenyl)-8-(2-methoxy-4-(trifluoromethyl)phenyl)-6,7-dihydro-5H-benzo[7]annulene-3-carboxylic acid], the “% Degradation At 0.3 μM” value was determined as 92%. The molecule also showed an IC50 under setting [1] of 0.9 nM.

Consider `CC(F)(F)c1cc(F)ccc1C1=C(c2ccc(C=C3CN(CCCF)C3)cc2)c2ccc(C(=O)O)cc2CCC1` [Compound 15, 8-(2-(1,1-difluoroethyl)-4-fluorophenyl)-9-(4-((1-(3-fluoropropyl)azetidin-3-ylidene)methyl)phenyl)-6,7-dihydro-5H-benzo[7]annulene-3-carboxylic acid], for which the “% Degradation At 0.3 μM” value is listed as 91%. In addition, the IC50 under setting [1] was found to be 0.4 nM.

In the case of `O=C(O)c1ccc2c(c1)CCCC(c1ccc(C(F)F)cc1OC(F)(F)F)=C2c1ccc(C=C2CN(CCCF)C2)cc1` [Compound 54, 8-(4-(difluoromethyl)-2-(trifluoromethoxy)phenyl)-9-(4-((1-(3-fluoropropyl)azetidin-3-ylidene)methyl)phenyl)-6,7-dihydro-5H-benzo[7]annulene-3-carboxylic acid], the “% Degradation At 0.3 μM” value is on record as 95%. The IC50 under setting [1] is 0.5 nM.

As for `CCc1c(Cl)cccc1C1=C(c2ccc(C=C3CN(CCCF)C3)cc2)c2ccc(C(=O)O)cc2CCC1` [Compound 46, 8-(3-chloro-2-ethylphenyl)-9-(4-((1-(3-fluoropropyl)azetidin-3-ylidene)methyl)phenyl)-6,7-dihydro-5H-benzo[7]annulene-3-carboxylic acid], the “% Degradation At 0.3 μM” value was 91%. The IC50 under setting [1] worked out at 0.5 nM.

Turning to `CCc1c(C2=C(c3ccc(C=C4CN(CCCF)C4)cc3)c3ccc(C(=O)O)cc3CCC2)cccc1C(F)(F)F` [Compound 5, 8-(2-ethyl-3-(trifluoromethyl)phenyl)-9-(4-((1-(3-fluoropropyl)azetidin-3-ylidene)methyl)phenyl)-6,7-dihydro-5H-benzo[7]annulene-3-carboxylic acid], the “% Degradation At 0.3 μM” value is 93%. Besides, the IC50 under setting [1] is 0.3 nM.

As for `Cc1cc(C(F)(F)F)c(C)cc1C1=C(c2ccc(C=C3CN(CCCF)C3)cc2)c2ccc(C(=O)O)cc2CCC1` [Compound 78, 8-(2,5-dimethyl-4-(trifluoromethyl)phenyl)-9-(4-((1-(3-fluoropropyl)azetidin-3-ylidene)methyl)phenyl)-6,7-dihydro-5H-benzo[7]annulene-3-carboxylic acid], the “% Degradation At 0.3 μM” value stood at 94%. Further, under setting [1], the midpoint of inhibition, the IC50, lay at 0.4 nM.

For the molecule `COc1c(F)ccc(C)c1C1=C(c2ccc(C=C3CN(CCCF)C3)cc2)c2ccc(C(=O)O)cc2CCC1` [Compound 7, 8-(3-fluoro-2-methoxy-6-methylphenyl)-9-(4-((1-(3-fluoropropyl)azetidin-3-ylidene)methyl)phenyl)-6,7-dihydro-5H-benzo[7]annulene-3-carboxylic acid], the “% Degradation At 0.3 μM” value worked out at 94%. The half-maximal inhibitory concentration (IC50) under setting [1] came to 0.5 nM.

On to `COc1cccc(C2=C(c3ccc(C=C4CN(CCCF)C4)cc3)c3ccc(C(=O)O)cc3CCC2)c1C` [Compound 41, 9-(4-((1-(3-fluoropropyl)azetidin-3-ylidene)methyl)phenyl)-8-(3-methoxy-2-methylphenyl)-6,7-dihydro-5H-benzo[7]annulene-3-carboxylic acid], for which the “% Degradation At 0.3 μM” value came to 91%. The molecule further displayed a half-maximal inhibitory concentration (IC50) under setting [1] of 0.7 nM.

Consider `Cc1cc(C)c(C2=C(c3ccc(C=C4CN(CCCF)C4)cc3)c3ccc(C(=O)O)cc3CCC2)c(C(F)(F)F)c1` [Compound 72, 8-(2,4-dimethyl-6-(trifluoromethyl)phenyl)-9-(4-((1-(3-fluoropropyl)azetidin-3-ylidene)methyl)phenyl)-6,7-dihydro-5H-benzo[7]annulene-3-carboxylic acid], for which the “% Degradation At 0.3 μM” value was found to be 100%. For the same molecule, under setting [1], the IC50 was found to be 0.3 nM.

As for `CCc1c(F)cccc1C1=C(c2ccc(C=C3CN(CCCF)C3)cc2)c2ccc(C(=O)O)cc2CCC1` [Compound 39, 8-(2-ethyl-3-fluorophenyl)-9-(4-((1-(3-fluoropropyl)azetidin-3-ylidene)methyl)phenyl)-6,7-dihydro-5H-benzo[7]annulene-3-carboxylic acid], the “% Degradation At 0.3 μM” value worked out at 92%. Also, 0.3 nM corresponded to half-maximal inhibition under setting [1] (IC50).

In the case of `COc1ccc(C(F)F)c(C2=C(c3ccc(C=C4CN(CCCF)C4)cc3)c3ccc(C(=O)O)cc3CCC2)c1` [Compound 45, 8-(2-(difluoromethyl)-5-methoxyphenyl)-9-(4-((1-(3-fluoropropyl)azetidin-3-ylidene)methyl)phenyl)-6,7-dihydro-5H-benzo[7]annulene-3-carboxylic acid], the “% Degradation At 0.3 μM” value is reported as 93%. Half-maximal inhibition under setting [1] (IC50) required 0.6 nM.

Turning to `COc1cccc(F)c1C1=C(c2ccc(C=C3CN(CCCF)C3)cc2)c2ccc(C(=O)O)cc2CCC1` [Compound 22, 8-(2-fluoro-6-methoxyphenyl)-9-(4-((1-(3-fluoropropyl)azetidin-3-ylidene)methyl)phenyl)-6,7-dihydro-5H-benzo[7]annulene-3-carboxylic acid], the “% Degradation At 0.3 μM” value stood at 94%. The molecule also came in with an IC50 under setting [1] of 0.5 nM.

As for `COc1cc(C2=C(c3ccc(C=C4CN(CCCF)C4)cc3)c3ccc(C(=O)O)cc3CCC2)ccc1C(F)(F)F` [Compound 50, 9-(4-((1-(3-fluoropropyl)azetidin-3-ylidene)methyl)phenyl)-8-(3-methoxy-4-(trifluoromethyl)phenyl)-6,7-dihydro-5H-benzo[7]annulene-3-carboxylic acid], the “% Degradation At 0.3 μM” value came to 92%. Half-maximal inhibition under setting [1] (IC50) was put at 8.5 nM.

For the molecule `COc1cccc(Cl)c1C1=C(c2ccc(C=C3CN(CCCF)C3)cc2)c2ccc(C(=O)O)cc2CCC1` [Compound 23, 8-(2-chloro-6-methoxyphenyl)-9-(4-((1-(3-fluoropropyl)azetidin-3-ylidene)methyl)phenyl)-6,7-dihydro-5H-benzo[7]annulene-3-carboxylic acid], the “% Degradation At 0.3 μM” value is recorded as 91%. Under setting [1], this molecule displayed an IC50 of 0.4 nM.

Consider `CC1(C)CCC(C2=C(c3ccc(C=C4CN(CCCF)C4)cc3)c3ccc(C(=O)O)cc3CCC2)CC1` [Compound 68, 8-(4,4-dimethylcyclohexyl)-9-(4-((1-(3-fluoropropyl)azetidin-3-ylidene)methyl)phenyl)-6,7-dihydro-5H-benzo[7]annulene-3-carboxylic acid], for which the “% Degradation At 0.3 μM” value was found to be 86%. For the same molecule, the DC50 (4 hours post compound addition, concentration which degrades 50% of the estrogen receptor, read-out: Degradation IC50) worked out at 0.7 nM.

With `COc1c(C2=C(c3ccc(C=C4CN(CCCF)C4)cc3)c3ccc(C(=O)O)cc3CCC2)cccc1C(F)(F)F` [Compound 63, 9-(4-((1-(3-fluoropropyl)azetidin-3-ylidene)methyl)phenyl)-8-(2-methoxy-3-(trifluoromethyl)phenyl)-6,7-dihydro-5H-benzo[7]annulene-3-carboxylic acid], the “% Degradation At 0.3 μM” value worked out at 94%. Further, it took 1 nM to reach half-maximal inhibition under setting [1] (IC50).

In the case of `Cc1cc(C2=C(c3ccc(C=C4CN(CCCF)C4)cc3)c3ccc(C(=O)O)cc3CCC2)ccc1C(F)F` [Compound 28, 8-(4-(difluoromethyl)-3-methylphenyl)-9-(4-((1-(3-fluoropropyl)azetidin-3-ylidene)methyl)phenyl)-6,7-dihydro-5H-benzo[7]annulene-3-carboxylic acid], the “% Degradation At 0.3 μM” value is 94%. The same molecule showed an IC50 under setting [1] of 0.5 nM.
